Measured values as given in ChEMBL document CHEMBL4011590, “Structure-activity relationship studies on 3,5-dinitrophenyl tetrazoles as antitubercular agents” (Eur J Med Chem, 2017).
≈ marks a conversion by molar mass, not a printed value.

Tests used:
[1] = tested on: Mycobacterium tuberculosis; assay: Antimycobacterial activity against Mycobacterium tuberculosis H37Rv CNCTC My 331/88 after 14 days by micromethod; assay type: functional; conditions: H37Rv CNCTC My 331/88, 336 h
[2] = tested on: Mycobacterium tuberculosis; assay: Antimycobacterial activity against Mycobacterium tuberculosis H37Rv CNCTC My 331/88 after 21 days by micromethod; assay type: functional; conditions: H37Rv CNCTC My 331/88, 504 h
Mycobacterium avium [3] = assay: Antimycobacterial activity against Mycobacterium avium CNCTC My 330/80 after 14 days by micromethod; assay type: functional; conditions: CNCTC My 330/80, 336 h
Mycobacterium avium [4] = assay: Antimycobacterial activity against Mycobacterium avium CNCTC My 330/80 after 21 days by micromethod; assay type: functional; conditions: CNCTC My 330/80, 504 h
Mycobacterium kansasii [5] = assay: Antimycobacterial activity against Mycobacterium kansasii CNCTC My 235/80 after 7 days by micromethod; assay type: functional; conditions: CNCTC My 235/80, 168 h
Mycobacterium kansasii [6] = assay: Antimycobacterial activity against Mycobacterium kansasii CNCTC My 235/80 after 14 days by micromethod; assay type: functional; conditions: CNCTC My 235/80, 336 h
Mycobacterium kansasii [7] = assay: Antimycobacterial activity against Mycobacterium kansasii CNCTC My 235/80 after 21 days by micromethod; assay type: functional; conditions: CNCTC My 235/80, 504 h
Mycobacterium kansasii [8] = assay: Antimycobacterial activity against Mycobacterium kansasii isolate 6509/96 after 7 days by micromethod; assay type: functional; conditions: isolate 6509/96, 168 h
Mycobacterium kansasii [9] = assay: Antimycobacterial activity against Mycobacterium kansasii isolate 6509/96 after 14 days by micromethod; assay type: functional; conditions: isolate 6509/96, 336 h
Mycobacterium kansasii [10] = assay: Antimycobacterial activity against Mycobacterium kansasii isolate 6509/96 after 21 days by micromethod; assay type: functional; conditions: isolate 6509/96, 504 h
CHO-K1 = assay: Cytotoxicity against CHOK1 cells after 24 hrs by MTT assay; assay type: cell-based; conditions: Cricetulus griseus, CHO-K1, 24 h
Staphylococcus aureus [11] = assay: Antibacterial activity against Staphylococcus aureus ATCC 6538 after 24 hrs by broth microdilution method; assay type: functional; conditions: ATCC 6538, 24 h
Staphylococcus aureus [12] = assay: Antibacterial activity against Staphylococcus aureus ATCC 6538 after 48 hrs by broth microdilution method; assay type: functional; conditions: ATCC 6538, 48 h
Staphylococcus aureus [13] = assay: Antibacterial activity against methicillin-resistant Staphylococcus aureus HK5996/08 after 24 hrs by broth microdilution method; assay type: functional; conditions: HK5996/08, 24 h
Staphylococcus aureus [14] = assay: Antibacterial activity against methicillin-resistant Staphylococcus aureus HK5996/08 after 48 hrs by broth microdilution method; assay type: functional; conditions: HK5996/08, 48 h
[15] = tested on: Staphylococcus epidermidis; assay: Antibacterial activity against Staphylococcus epidermidis HK6966/08 after 24 hrs by broth microdilution method; assay type: functional; conditions: HK6966/08, 24 h
[16] = tested on: Staphylococcus epidermidis; assay: Antibacterial activity against Staphylococcus epidermidis HK6966/08 after 48 hrs by broth microdilution method; assay type: functional; conditions: HK6966/08, 48 h
Enterococcus sp. [17] = assay: Antibacterial activity against Enterococcus sp. HK14365/08 after 24 hrs by broth microdilution method; assay type: functional; conditions: HK14365/08, 24 h
Enterococcus sp. [18] = assay: Antibacterial activity against Enterococcus sp. HK14365/08 after 48 hrs by broth microdilution method; assay type: functional; conditions: HK14365/08, 48 h
Escherichia coli [19] = assay: Antibacterial activity against Escherichia coli ATCC 8739 after 24 hrs by broth microdilution method; assay type: functional; conditions: ATCC 8739, 24 h
Escherichia coli [20] = assay: Antibacterial activity against Escherichia coli ATCC 8739 after 48 hrs by broth microdilution method; assay type: functional; conditions: ATCC 8739, 48 h
Klebsiella pneumoniae [21] = assay: Antibacterial activity against Klebsiella pneumoniae HK11750/08 after 24 hrs by broth microdilution method; assay type: functional; conditions: HK11750/08, 24 h
Klebsiella pneumoniae [22] = assay: Antibacterial activity against Klebsiella pneumoniae HK11750/08 after 48 hrs by broth microdilution method; assay type: functional; conditions: HK11750/08, 48 h
Klebsiella pneumoniae [23] = assay: Antibacterial activity against extended spectrum beta-lactamase producing Klebsiella pneumoniae HK14368/08 after 24 hrs by broth microdilution method; assay type: functional; conditions: HK14368/08, 24 h
Klebsiella pneumoniae [24] = assay: Antibacterial activity against extended spectrum beta-lactamase producing Klebsiella pneumoniae HK14368/08 after 48 hrs by broth microdilution method; assay type: functional; conditions: HK14368/08, 48 h
Pseudomonas aeruginosa [25] = assay: Antibacterial activity against Pseudomonas aeruginosa ATCC 9027 after 24 hrs by broth microdilution method; assay type: functional; conditions: ATCC 9027, 24 h
Pseudomonas aeruginosa [26] = assay: Antibacterial activity against Pseudomonas aeruginosa ATCC 9027 after 48 hrs by broth microdilution method; assay type: functional; conditions: ATCC 9027, 48 h
Candida albicans [27] = assay: Antifungal activity against Candida albicans ATCC 44859 after 24 hrs by broth microdilution method; assay type: functional; conditions: ATCC 44859, 24 h
Candida albicans [28] = assay: Antifungal activity against Candida albicans ATCC 44859 after 48 hrs by broth microdilution method; assay type: functional; conditions: ATCC 44859, 48 h
Candida tropicalis [29] = assay: Antifungal activity against Candida tropicalis 156 after 24 hrs by broth microdilution method; assay type: functional; conditions: Candida tropicalis, 156, 24 h
Candida tropicalis [30] = assay: Antifungal activity against Candida tropicalis 156 after 48 hrs by broth microdilution method; assay type: functional; conditions: Candida tropicalis, 156, 48 h
Pichia kudriavzevii [31] = assay: Antifungal activity against Candida krusei E28 after 24 hrs by broth microdilution method; assay type: functional; conditions: E28, 24 h
Pichia kudriavzevii [32] = assay: Antifungal activity against Candida krusei E28 after 48 hrs by broth microdilution method; assay type: functional; conditions: E28, 48 h
Nakaseomyces glabratus [33] = assay: Antifungal activity against Candida glabrata 20/I after 24 hrs by broth microdilution method; assay type: functional
Nakaseomyces glabratus [34] = assay: Antifungal activity against Candida glabrata 20/I after 48 hrs by broth microdilution method; assay type: functional
Trichosporon asahii [35] = assay: Antifungal activity against Trichosporon asahii 1188 after 24 hrs by broth microdilution method; assay type: functional; conditions: Trichosporon asahii, 1188, 24 h
Trichosporon asahii [36] = assay: Antifungal activity against Trichosporon asahii 1188 after 48 hrs by broth microdilution method; assay type: functional; conditions: Trichosporon asahii, 1188, 48 h
Aspergillus fumigatus [37] = assay: Antifungal activity against Aspergillus fumigatus 231 after 24 hrs by broth microdilution method; assay type: functional; conditions: Aspergillus fumigatus, 231, 24 h
Aspergillus fumigatus [38] = assay: Antifungal activity against Aspergillus fumigatus 231 after 48 hrs by broth microdilution method; assay type: functional; conditions: Aspergillus fumigatus, 231, 48 h
Lichtheimia corymbifera [39] = assay: Antifungal activity against Absidia corymbifera 272 after 24 hrs by broth microdilution method; assay type: functional; conditions: Lichtheimia corymbifera, 272, 24 h
Lichtheimia corymbifera [40] = assay: Antifungal activity against Absidia corymbifera 272 after 48 hrs by broth microdilution method; assay type: functional; conditions: Lichtheimia corymbifera, 272, 48 h
[41] = tested on: Trichophyton mentagrophytes; assay: Antifungal activity against Trichophyton mentagrophytes 445 after 72 hrs by broth microdilution method; assay type: functional; conditions: Trichophyton mentagrophytes, 445, 72 h
[42] = tested on: Trichophyton mentagrophytes; assay: Antifungal activity against Trichophyton mentagrophytes 445 after 120 hrs by broth microdilution method; assay type: functional; conditions: Trichophyton mentagrophytes, 445, 120 h

Work on `COc1ccc(Cn2nnnc2-c2cc([N+](=O)[O-])cc([N+](=O)[O-])c2)cc1` yielded an MIC99 [1] of 8 µM (≈ 2.85 µg/mL), an MIC99 [2] of 8 µM (≈ 2.85 µg/mL) and an MIC99 (Mycobacterium avium [3]) of 16 µM (≈ 5.7 µg/mL). The MIC99 (Mycobacterium avium [4]) was 32 µM (≈ 11.4 µg/mL), the MIC99 (Mycobacterium kansasii [5]) was 16 µM (≈ 5.7 µg/mL) and the MIC99 (Mycobacterium kansasii [6]) was 32 µM (≈ 11.4 µg/mL). For the same molecule, the MIC99 (Mycobacterium kansasii [7]) was 32 µM (≈ 11.4 µg/mL), the MIC99 (Mycobacterium kansasii [8]) was 8 µM (≈ 2.85 µg/mL) and the MIC99 (Mycobacterium kansasii [9]) was 8 µM (≈ 2.85 µg/mL). For the same molecule, the MIC99 (Mycobacterium kansasii [10]) was 16 µM (≈ 5.7 µg/mL), the IC50 (CHO-K1) was 21 µM and the MIC (Staphylococcus aureus [11]) was 62.5 µM (≈ 22.3 µg/mL). For the same molecule, the MIC (Staphylococcus aureus [12]) was 62.5 µM (≈ 22.3 µg/mL), the MIC (Staphylococcus aureus [13]) was 31.2 µM (≈ 11.1 µg/mL) and the MIC (Staphylococcus aureus [14]) was 15.6 µM (≈ 5.57 µg/mL). The MIC [15] was 62.5 µM (≈ 22.3 µg/mL), the MIC [16] was 62.5 µM (≈ 22.3 µg/mL) and the MIC (Enterococcus sp. [17]) was 62.5 µM (≈ 22.3 µg/mL). It also gave an MIC (Enterococcus sp. [18]) of 62.5 µM (≈ 22.3 µg/mL), an MIC (Escherichia coli [19]) of 125 µM (≈ 44.5 µg/mL) and an MIC (Escherichia coli [20]) of 62.5 µM (≈ 22.3 µg/mL). The MIC (Klebsiella pneumoniae [21]) was 250 µM (≈ 89.1 µg/mL), the MIC (Klebsiella pneumoniae [22]) was 125 µM (≈ 44.5 µg/mL) and the MIC (Klebsiella pneumoniae [23]) was 250 µM (≈ 89.1 µg/mL). The MIC (Klebsiella pneumoniae [24]) was 125 µM (≈ 44.5 µg/mL), the MIC (Pseudomonas aeruginosa [25]) was greater than 500 µM and the MIC (Pseudomonas aeruginosa [26]) was greater than 500 µM. For the same molecule, the MIC (Candida albicans [27]) was 250 µM (≈ 89.1 µg/mL), the MIC (Candida albicans [28]) was 250 µM (≈ 89.1 µg/mL) and the MIC (Candida tropicalis [29]) was 500 µM (≈ 178 µg/mL). The MIC (Candida tropicalis [30]) was 500 µM (≈ 178 µg/mL), the MIC (Pichia kudriavzevii [31]) was 250 µM (≈ 89.1 µg/mL) and the MIC (Pichia kudriavzevii [32]) was 250 µM (≈ 89.1 µg/mL). The MIC (Nakaseomyces glabratus [33]) was 500 µM (≈ 178 µg/mL), the MIC (Nakaseomyces glabratus [34]) was 500 µM (≈ 178 µg/mL) and the MIC (Trichosporon asahii [35]) was 500 µM (≈ 178 µg/mL). For the same molecule, the MIC (Trichosporon asahii [36]) was 500 µM (≈ 178 µg/mL), the MIC (Aspergillus fumigatus [37]) was 500 µM (≈ 178 µg/mL) and the MIC (Aspergillus fumigatus [38]) was 500 µM (≈ 178 µg/mL). The MIC (Lichtheimia corymbifera [39]) was 500 µM (≈ 178 µg/mL), the MIC (Lichtheimia corymbifera [40]) was 500 µM (≈ 178 µg/mL) and the MIC [41] was 500 µM (≈ 178 µg/mL). The MIC [42] was 500 µM (≈ 178 µg/mL).
